Experimental data reported in article PMC9555310, “Novel inhibitors and activity-based probes targeting serine proteases” (Frontiers in Chemistry, 2022).

Legend:
[1] = molecular target: T1, trypsin (Sus scrofa, UniProt P00761); assay: Activity-based profiling of trypsin (SDS-PAGE, streptavidin-HRP western blot); assay type: binding, porcine; conditions: added 30 min prior to NAP830
T1 construct: purchased Sigma-Aldrich; host or cells: porcine pancreas
Procedure: Samples of recombinant protease (trypsin, plasmin, thrombin, chymotrypsin, or HNE, as indicated in the relevant figure legends) were treated with each of the newly synthesized compounds at a concentration of 50 μM, for 30 min, at 37°C. A control sample (no ABP) was prepared by treating the recombinant protease with solvent vehicle (DMF) only, used to prepare the stock solution of each ABP. Samples were also pre-treated (±90°C for 30 min) before being incubated with each putative ABP. With trypsin and thrombin, further samples were prepared where Z-Arg^P-(OPh)2 or NAP559, respectively, was added 30 min prior to the addition of the ABP under examination. All treated samples were then denatured with SDS containing reducing treatment buffer (10 min at 95°C), followed by resolution by SDS-PAGE and subjected to Western blotting. Resolved proteins were then transferred onto the nitrocellulose membrane and labeled with streptavidin-HRP. […]
Following transfer, the extra protein binding sites on the membrane were blocked by addition of 3% (w/v) BSA in TBST (20 mM Tris, 137 mM NaCl, 1% (v/v) Tween 20, pH 7.6) and agitated gently at room temperature for 30 minutes. The biotin-labelled proteases were then detected by addition of Streptavidin-HRP (Vector Laboratories) in 3% (w/v) BSA in TBST at a concentration of 1:20000, for 1 hour at room temperature. […]

[2] = molecular target: T2, neutrophil elastase (NE) (Homo sapiens, UniProt P08246); set-up: method as in Gilmore et al. (2009); conditions: ref Gilmore et al. (2009); cited from earlier work
T2 construct: purchased Calbiochem
T2 sequence (P08246 30-267): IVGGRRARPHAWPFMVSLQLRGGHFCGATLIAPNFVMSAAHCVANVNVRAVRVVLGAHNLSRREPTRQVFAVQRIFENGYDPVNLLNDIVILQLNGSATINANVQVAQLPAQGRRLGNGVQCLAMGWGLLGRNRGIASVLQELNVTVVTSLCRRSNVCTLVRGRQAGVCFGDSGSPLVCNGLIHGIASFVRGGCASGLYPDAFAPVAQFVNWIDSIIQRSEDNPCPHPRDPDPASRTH

T1 sequence (P00761 9-231): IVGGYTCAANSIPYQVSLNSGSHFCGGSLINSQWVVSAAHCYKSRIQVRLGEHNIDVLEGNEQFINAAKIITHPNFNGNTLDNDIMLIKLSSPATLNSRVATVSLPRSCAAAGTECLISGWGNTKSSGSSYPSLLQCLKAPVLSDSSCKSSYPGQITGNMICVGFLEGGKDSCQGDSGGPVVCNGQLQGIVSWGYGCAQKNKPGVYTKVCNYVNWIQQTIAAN

Row | Molecule | effect of pre-treatment of trypsin on signal detected by NAP830 [1] | k 3 / K i [2] [M⁻¹ s⁻¹]
1 | NC(N)=NCCCC(NC(=O)OCc1ccccc1)P(=O)(Oc1ccccc1)Oc1ccccc1 (centres unmarked) [Z-Arg^P-(OPh)2, reference compound] | quenching/diminution in the signal detected by NAP830 | –
2 | biotin-PEG-succinyl-Val^P-(OPh)2 [QUBEL1] | – | 215
